Test results taken from patent US20240383908A1, “SYNTHESIS AND APPLICATION OF PHOSPHATASE DEGRADER” (HINOVA PHARMACEUTICALS INC., priority 2021, published 2024).
Structures can show the parent of a compound that is named as a salt.

Key:
SHP2 protein [1] = target: T1, SHP2 protein (Homo sapiens, UniProt Q06124); test: Degradation activity on SHP2 protein in NCI-H358 cells (Western blot, DC50); type: cell-based; parameters: endogenous in cells; conditions: read-out: Degradation activity for differenct cell lines NCI-H358 (DC50)
T1 sequence (Q06124 1-593): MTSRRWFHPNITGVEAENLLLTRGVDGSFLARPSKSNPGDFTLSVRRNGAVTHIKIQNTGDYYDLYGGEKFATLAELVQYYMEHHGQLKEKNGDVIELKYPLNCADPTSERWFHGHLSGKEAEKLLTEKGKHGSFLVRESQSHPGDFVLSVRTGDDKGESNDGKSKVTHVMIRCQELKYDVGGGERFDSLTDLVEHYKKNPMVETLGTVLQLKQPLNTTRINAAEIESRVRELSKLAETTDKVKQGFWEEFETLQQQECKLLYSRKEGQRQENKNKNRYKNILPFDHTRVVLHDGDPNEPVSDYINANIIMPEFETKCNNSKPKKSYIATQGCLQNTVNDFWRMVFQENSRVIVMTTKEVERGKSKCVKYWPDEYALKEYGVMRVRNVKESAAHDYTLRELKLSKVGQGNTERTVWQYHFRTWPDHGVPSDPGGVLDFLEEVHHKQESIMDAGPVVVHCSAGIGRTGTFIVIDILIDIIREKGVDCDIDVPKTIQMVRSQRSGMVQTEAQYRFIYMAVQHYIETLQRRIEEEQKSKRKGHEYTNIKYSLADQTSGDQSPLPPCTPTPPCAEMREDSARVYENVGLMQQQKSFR
Method: (1) MV-411 cells were cultured in the cell culture medium, and then well-growing cells were selected and inoculated in a 12-well plate, with 1 mL/well and 1×10^6 cells/well. The plate was incubated overnight in a 5% CO2 cell incubator at 37° C.
(2) 10 mM storage solution of each drug was prepared using dimethylsulfoxide (DMSO). The stock solution was diluted gradually with DMSO before use, and then 1 μL of the compound solution was added to the cell culture well (to ensure that the DMSO concentration in the culture system was […]), so that the final drug concentration is 100 nM, 10 nM, 3 nM, 1 nM, 0.3 nM, and 0.1 nM. Two wells were set for each concentration. The plate was gently shaken and mixed. Additionally, negative control wells (containing an equal amount of DMSO) and positive control wells were included.
(3) After 24 hours of cultivation, the cells were lysed using RIPA cell lysate, and the proteins were extracted. The protein concentration was measured using a BCA assay kit. 5× concentrated protein buffer was loaded, heated at 100° C. for 5 min, and then the sample was stored at −20° C.
(4) For each well, 30 μg of protein was loaded to polyacrylamide gel for electrophoresis.
(5) The protein was transferred from polyacrylamide gel to PVDF membrane, and sealed at room temperature with 5% skimmed milk for 1 h, which was then incubated with the primary antibodies (Anti-SHP2 rabbit mAb and Anti-GAPDH rabbit mAb) at 4° C. overnight. The membrane was washed three times with TBST solution, 10 minutes for each time. After that, the membrane was incubated with the secondary antibodies (horseradish peroxidase labeled goat anti-rabbit IgG) at room temperature for 2 h, and then washed three times with TBST solution, 10 minutes for each time, followed by exposure.
(6) The images were analyzed with Image J grayscale, and the degradation ratio of protein bands in the test group was calculated, based on the negative control group (DMSO) (100%).
(7) Using the Dose-response-inhibition equation in the data processing software GraphPad Prism 8, the DC50 value was obtained (which represents the drug concentration corresponding to 50% degradation of the target protein).
Using similar methods and different cell lines, the degradation activity of the compound according to the present invention on SHP2 protein of different cell lines was tested under suitable culture conditions.

SHP2 protein [2] = target: T1, SHP2 protein; test: Degradation activity on SHP2 protein in MIA Paca-2 cells (Western blot, DC50); type: cell-based; parameters: endogenous in cells; host or cells: MIA Paca-2 cells; conditions: read-out: Degradation activity for differenct cell lines MIA Paca-2 (DC50)
Summary of the method: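 Cells were treated 24 h at 37 °C with compound (0.1–100 nM final, 0.1% DMSO). SHP2 was measured by Western blot with GAPDH as loading control, densitometry normalized to DMSO (100%). DC50, the concentration giving 50% degradation, came from a dose-response fit.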

## C[C@@H]1CN(c2ccc(C(=O)NCc3ccc4c(c3)CN(C3CCC(=O)NC3=O)C4=O)nn2)CCN1CCCCCCCCC(=O)Nc1cccc(Sc2cnc(N3CCC(C)(N)CC3)cn2)c1 (stereo partly shown) [Compound 252]
SHP2 protein [1]
  DC50: < 100 nM
SHP2 protein [2]
  DC50: < 100 nM

## CC1(N)CCN(c2cnc(Sc3cccc(NC(=O)CCCCN4CCC(N5CCN(c6ccc(C(=O)NCc7ccc8c(c7)CN(C7CCC(=O)NC7=O)C8=O)nn6)CC5)C4)c3)cn2)CC1 (stereo not shown) [Compound 266]
SHP2 protein [1]
  DC50: 100 to 1000 nM
SHP2 protein [2]
  DC50: > 1000 nM

## CC1(N)CCN(c2cnc(Sc3cccc(NC(=O)c4ccc(-c5ccc(N6CCN(c7ccc(C(=O)NCc8ccc9c(c8)CN(C8CCC(=O)NC8=O)C9=O)nc7)CC6)cc5)cc4)c3)cn2)CC1 (stereo not shown) [Compound 343, 5-(4-(4′-((3-(([…])thio)phenyl)carbamoyl)-[1,1′-diphenyl]-4-yl)piperazin-1-yl)-N-((2-(2,6-dioxopiperidin-3-yl)-1-oxoisoindolin-5-yl)methyl)pyridinecarboxamide]
SHP2 protein [1]
  DC50: > 1000 nM
SHP2 protein [2]
  DC50: < 100 nM

## CC1(N)CCN(c2cnc(Sc3cccc(NC(=O)c4ccc5c(c4)CC(N4CCN(c6ccc(C(=O)NCc7ccc8c(c7)CN(C7CCC(=O)NC7=O)C8=O)nn6)CC4)C5)c3)cn2)CC1 (stereo not shown) [Compound 344, […]]
SHP2 protein [1]
  DC50: > 1000 nM
SHP2 protein [2]
  DC50: < 100 nM

## CC1(N)CCN(c2cnc(Sc3cccc(NC(=O)c4csc(N5CCC(N6CC=C(c7ccc(C(=O)NCc8ccc9c(c8)CN(C8CCC(=O)NC8=O)C9=O)nn7)CC6)CC5)n4)c3)cn2)CC1 (stereo not shown) [Compound 357]
SHP2 protein [1]
  DC50: < 100 nM
SHP2 protein [2]
  DC50: < 100 nM

## CC1(N)CCN(c2cnc(Sc3cccc(NC(=O)c4ccc(N5CCC(N6CC=C(c7ncc(C(=O)NCc8ccc9c(c8)CN(C8CCC(=O)NC8=O)C9=O)cc7Cl)CC6)CC5)cc4)c3)cn2)CC1 (stereo not shown) [Compound 365]
SHP2 protein [1]
  DC50: < 100 nM
SHP2 protein [2]
  DC50: 100 to 1000 nM

## CC1(N)CCN(c2cnc(Sc3cccc(NC(=O)c4ccc(N5CCC(N6CC=C(c7ncc(C(=O)NCc8ccc9c(c8)CN(C8CCC(=O)NC8=O)C9=O)cn7)CC6)CC5)cc4)c3)cn2)CC1 (stereo not shown) [Compound 370]
SHP2 protein [1]
  DC50: < 100 nM
SHP2 protein [2]
  DC50: 100 to 1000 nM

## CC1(N)CCN(c2cnc(Sc3cccc(NC(=O)c4ccc(N5CCC(N6CC=C(c7cnc(C(=O)NCc8ccc9c(c8)CN(C8CCC(=O)NC8=O)C9=O)cn7)CC6)CC5)cc4)c3)cn2)CC1 (stereo not shown) [Compound 371]
SHP2 protein [1]
  DC50: < 100 nM
SHP2 protein [2]
  DC50: 100 to 1000 nM

## NC1(CO)CCN(c2cnc(Sc3cccc(NC(=O)c4ccc(N5CCC(N6CC=C(c7ccc(C(=O)NCc8ccc9c(c8)CN(C8CCC(=O)NC8=O)C9=O)nn7)CC6)CC5)cc4)c3)cn2)CC1 (stereo not shown) [Compound 375]
SHP2 protein [1]
  DC50: < 100 nM
SHP2 protein [2]
  DC50: > 1000 nM

## COc1cc(C2=CCN(C3CCN(c4ccc(C(=O)Nc5cccc(Sc6cnc(N7CCC(C)(N)CC7)cn6)c5)cc4)CC3)CC2)ccc1C(=O)NCc1ccc2c(c1)CN(C1CCC(=O)NC1=O)C2=O (stereo not shown) [Compound 377]
SHP2 protein [1]
  DC50: < 100 nM
SHP2 protein [2]
  DC50: < 100 nM

## CC1(N)CCN(c2cnc(Sc3cccc(NC(=O)c4ccc(N5CCC(N6CCN(c7ccc(C(=O)NCc8ccc9c(c8)CN(C8CCC(=O)NC8=O)C9=O)nc7)CC6)CC5)cc4)c3)cn2)CC1 (stereo not shown) [Compound 395]
SHP2 protein [1]
  DC50: < 100 nM
SHP2 protein [2]
  DC50: < 100 nM

## CC1(N)CCN(c2cnc(Sc3cccc(NC(=O)c4ccc(N5CCC(N6CCN(c7ccc(C(=O)NCc8ccc9c(c8)CN(C8CCC(=O)NC8=O)C9=O)nc7)CC6)CC5)c(F)c4)c3)cn2)CC1 (stereo not shown) [Compound 396]
SHP2 protein [1]
  DC50: < 100 nM
SHP2 protein [2]
  DC50: < 100 nM

## CC1(N)CCN(c2cnc(Sc3cccc(NC(=O)c4ccc(N5CCC(N6CCN(c7ccc(C(=O)NCc8ccc9c(c8)CN(C8CCC(=O)NC8=O)C9=O)nn7)CC6)CC5)c(F)c4)c3)cn2)CC1 (stereo not shown) [Compound 397]
SHP2 protein [1]
  DC50: < 100 nM
SHP2 protein [2]
  DC50: < 100 nM

## CC1(N)CCN(c2cnc(Sc3cccc(NC(=O)c4ccc(N5CCC(N6CC=C(c7ccc(C(=O)NCc8ccc9c(c8)CN(C8CCC(=O)NC8=O)C9=O)nc7Cl)CC6)CC5)cc4)c3)cn2)CC1 (stereo not shown) [Compound 398]
SHP2 protein [1]
  DC50: < 100 nM
SHP2 protein [2]
  DC50: < 100 nM

## CC1(N)CCN(c2cnc(Sc3cccc(NC(=O)c4ccc(N5CCC(N6CC=C(c7cnc(C(=O)NCc8ccc9c(c8)CN(C8CCC(=O)NC8=O)C9=O)cc7Cl)CC6)CC5)cc4)c3)cn2)CC1 (stereo not shown) [Compound 399]
SHP2 protein [1]
  DC50: < 100 nM
SHP2 protein [2]
  DC50: < 100 nM

## CC1(N)CCN(c2cnc(Sc3cccc(NC(=O)c4ccc(N5CCC(N6CC=C(c7cnc(C(=O)NCc8ccc9c(c8)CN(C8CCC(=O)NC8=O)C9=O)c(Cl)c7)CC6)CC5)cc4)c3)cn2)CC1 (stereo not shown) [Compound 400]
SHP2 protein [1]
  DC50: < 100 nM
SHP2 protein [2]
  DC50: < 100 nM

## CC1(N)CCN(c2cnc(Sc3cccc(NC(=O)c4ccc(N5CCC(N6CC=C(c7ccc(C(=O)NCc8ccc9c(c8)CN(C8CCC(=O)NC8=O)C9=O)nc7)CC6)CC5)cc4F)c3)cn2)CC1 (stereo not shown) [Compound 405]
SHP2 protein [1]
  DC50: < 100 nM
SHP2 protein [2]
  DC50: 100 to 1000 nM

## CC1(N)CCN(c2cnc(Sc3cccc(NC(=O)c4ccc(-c5ccc(N6CCC7(CC6)CC7C(=O)NCc6ccc7c(c6)CN(C6CCC(=O)NC6=O)C7=O)cc5)cc4)c3)cn2)CC1 (stereo not shown) [Compound 406]
SHP2 protein [1]
  DC50: > 1000 nM
SHP2 protein [2]
  DC50: > 1000 nM

## CC1(N)CCN(c2cnc(Sc3cccc(NC(=O)c4ccc(N5CCC(N6CC=C(c7ccc(C(=O)NCc8ccc9c(c8)CN(C8CCC(=O)NC8=O)C9=O)nc7)CC6)C(F)C5)nc4)c3)cn2)CC1 (stereo not shown) [Compound 409]
SHP2 protein [1]
  DC50: < 100 nM
SHP2 protein [2]
  DC50: < 100 nM

## CC1(N)CCN(c2cnc(Sc3cccc(NC(=O)c4ccc(N5CCC(N6CC=C(c7ccc(C(=O)NCc8ccc9c(c8)CN(C8CCC(=O)NC8=O)C9=O)nc7)C6)CC5)c(F)c4)c3)cn2)CC1 (stereo not shown) [Compound 410]
SHP2 protein [1]
  DC50: < 100 nM
SHP2 protein [2]
  DC50: < 100 nM

## CC1(N)CCN(c2cnc(Sc3cccc(NC(=O)c4ccc(N5CCC(N6CC=C(c7cnc(C(=O)NCc8ccc9c(c8)CN(C8CCC(=O)NC8=O)C9=O)cc7Cl)CC6)CC5)c(F)c4)c3)cn2)CC1 (stereo not shown) [Compound 418]
SHP2 protein [1]
  DC50: < 100 nM
SHP2 protein [2]
  DC50: < 100 nM

## CC1(N)CCN(c2cnc(Sc3cccc(NC(=O)c4ccc(N5CCC(N6CC=C(c7cnc(C(=O)NCc8ccc9c(c8)CN(C8CCC(=O)NC8=O)C9=O)cc7Cl)CC6)CC5)nc4)c3)cn2)CC1 (stereo not shown) [Compound 419]
SHP2 protein [1]
  DC50: < 100 nM
SHP2 protein [2]
  DC50: < 100 nM

## Cc1cc(C(=O)Nc2cccc(Sc3cnc(N4CCC(C)(N)CC4)cn3)c2)ccc1N1CCC(N2CC=C(c3cnc(C(=O)NCc4ccc5c(c4)CN(C4CCC(=O)NC4=O)C5=O)c(F)c3)CC2)CC1 (stereo not shown) [Compound 439]
SHP2 protein [1]
  DC50: < 100 nM
SHP2 protein [2]
  DC50: < 100 nM

## CC1(N)CCN(c2cnc(Sc3cccc(NC(=O)c4ccc(N5CCC(N6CC=C(c7ccc(C(=O)NCc8ccc9c(c8)CN(C8CCC(=O)NC8=O)C9=O)nc7Cl)CC6)CC5)c(F)c4)c3)cn2)CC1 (stereo not shown) [Compound 442]
SHP2 protein [1]
  DC50: 100 to 1000 nM
SHP2 protein [2]
  DC50: 100 to 1000 nM

## Cc1cc(N2CCC(N3CC=C(c4cnc(C(=O)NCc5ccc6c(c5)CN(C5CCC(=O)NC5=O)C6=O)c(Cl)c4)CC3)CC2)ccc1C(=O)Nc1cccc(Sc2cnc(N3CCC(C)(N)CC3)cn2)c1 (stereo not shown) [Compound 443]
SHP2 protein [1]
  DC50: < 100 nM
SHP2 protein [2]
  DC50: 100 to 1000 nM

## CC1(N)CCN(c2cnc(Sc3cccc(NC(=O)c4ccc(N5CCC(N6CC=C(c7ccc(C(=O)NCc8ccc9c(c8)CN(C8CCC(=O)NC8=O)C9=O)cc7)CC6)CC5)c(F)c4)c3)cn2)CC1 (stereo not shown) [Compound 445]
SHP2 protein [1]
  DC50: < 100 nM
SHP2 protein [2]
  DC50: 100 to 1000 nM
